Data reported in ChEMBL document CHEMBL1138109, “Semicarbazone-based inhibitors of cathepsin K, are they prodrugs for aldehyde inhibitors?” (Bioorg Med Chem Lett, 2006).

Biological target: T1, Cathepsin K (Homo sapiens, UniProt P43235)
T1 sequence (P43235 whole entry): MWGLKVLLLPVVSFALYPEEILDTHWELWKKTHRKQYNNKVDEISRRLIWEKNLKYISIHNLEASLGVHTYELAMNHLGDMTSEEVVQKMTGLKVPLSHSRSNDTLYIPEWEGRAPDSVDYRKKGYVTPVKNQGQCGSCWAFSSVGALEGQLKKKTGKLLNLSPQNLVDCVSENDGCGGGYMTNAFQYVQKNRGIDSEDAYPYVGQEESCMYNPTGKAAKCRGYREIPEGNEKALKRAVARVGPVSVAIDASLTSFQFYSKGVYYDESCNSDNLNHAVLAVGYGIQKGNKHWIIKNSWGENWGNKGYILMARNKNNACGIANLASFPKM
Experiment: Inhibition of recombinant human cathepsin K in a fluorescence assay

IC50	Structure (SMILES)
490 nM	CCCC[C@@H](/C=N/NC(=O)NCC)NC(=O)OC(C)(C)C
410 nM	CCCC[C@@H](/C=N/NC(=O)NCc1ccccc1)NC(=O)OC(C)(C)C
200 nM	CCCC[C@@H](/C=N/NC(=O)CC(C)C)NC(=O)OC(C)(C)C
40 nM	CCCC[C@@H](/C=N/NC(=O)N(CC)CC)NC(=O)OC(C)(C)C
130 nM	CCCC[C@@H](/C=N/NC(=O)OC(C)C)NC(=O)OC(C)(C)C
520 nM	CCCC[C@@H](/C=N/NC(=O)NCC(=O)OCC)NC(=O)OC(C)(C)C
830 nM	CCCC[C@@H](/C=N/NC(=O)SC(C)C)NC(=O)OC(C)(C)C
280 nM	CCCC[C@@H](/C=N/NC(=O)NC)NC(=O)OC(C)(C)C
220 nM	CCCC[C@@H](/C=N/NC(=O)c1ccccc1)NC(=O)OC(C)(C)C
350 nM	CCCC[C@@H](/C=N/NC(N)=O)NC(=O)OC(C)(C)C
180 nM	CCCC[C@@H](/C=N/NC(=O)NC(=O)OC)NC(=O)OC(C)(C)C
470 nM	CCCC[C@@H](/C=N/NC(=O)NCCC(=O)OCC)NC(=O)OC(C)(C)C

Second part, the compound before the results:

Structure (SMILES)	IC50
CCCC[C@@H](/C=N/NC(=O)NCCc1ccccc1)NC(=O)OC(C)(C)C	260 nM
CCCC[C@@H](/C=N/N(C)C(=O)N(C)CCc1ccccc1)NC(=O)OC(C)(C)C	520 nM
CCCC[C@@H](/C=N/NC(=O)N1CCCc2ccccc21)NC(=O)OC(C)(C)C	59 nM
CCCC[C@@H](/C=N/NC(=O)N1CCc2ccccc2C1)NC(=O)OC(C)(C)C	93 nM
CCCC[C@@H](/C=N/NC(=O)N1CCCCC1)NC(=O)OC(C)(C)C	58 nM
CCCC[C@@H](/C=N/OC(=O)N1CCOCC1)NC(=O)OC(C)(C)C	1100 nM
CCCC[C@@H](/C=N/NC(=O)N(C)CCc1ccccc1)NC(=O)OC(C)(C)C	45 nM
CCCC[C@@H](/C=N/N[N+]1=CSCC1)NC(=O)OC(C)(C)C	470 nM
CC(C)C[C@@H]([13CH]=O)NC(=O)OC(C)(C)C	31 nM
